Series [1] has as its target cAMP and cAMP-inhibited cGMP 3',5'-cyclic phosphodiesterase 10A (Homo sapiens, UniProt Q9Y233). As to the kind of experiment: Inhibition of PDE10A (unknown origin) preincubated for 20 mins followed by substrate addition and measured after 1 hr by PEDlight AMP detection reagent based luminescence assay.
Series [2] has as its target 5-hydroxytryptamine receptor 7 (Homo sapiens, UniProt P34969). The series is described as follows: Displacement of [3H]-5-CT from human 5-HT7 receptor expressed in CHO-K1 cells membrane by scintillation counter analysis. The series is classed as cell membranes. A general note: Displacement assays read how much labelled ligand stays bound in the presence of the test substance.

For series [3], the target named is 5-hydroxytryptamine receptor 2A (Homo sapiens, UniProt P28223). The series is described as follows: Binding affinity to 5HT-2A receptor (unknown origin).
A further series concerns the target D(2) dopamine receptor (Homo sapiens, UniProt P14416). The series is described as follows: Binding affinity to dopamine D2 receptor (unknown origin).
Series [4] addresses T1, Adrenergic receptor alpha-1 (Homo sapiens, UniProt P35348+P25100+P35368).
T1 sequence (P35348 whole entry): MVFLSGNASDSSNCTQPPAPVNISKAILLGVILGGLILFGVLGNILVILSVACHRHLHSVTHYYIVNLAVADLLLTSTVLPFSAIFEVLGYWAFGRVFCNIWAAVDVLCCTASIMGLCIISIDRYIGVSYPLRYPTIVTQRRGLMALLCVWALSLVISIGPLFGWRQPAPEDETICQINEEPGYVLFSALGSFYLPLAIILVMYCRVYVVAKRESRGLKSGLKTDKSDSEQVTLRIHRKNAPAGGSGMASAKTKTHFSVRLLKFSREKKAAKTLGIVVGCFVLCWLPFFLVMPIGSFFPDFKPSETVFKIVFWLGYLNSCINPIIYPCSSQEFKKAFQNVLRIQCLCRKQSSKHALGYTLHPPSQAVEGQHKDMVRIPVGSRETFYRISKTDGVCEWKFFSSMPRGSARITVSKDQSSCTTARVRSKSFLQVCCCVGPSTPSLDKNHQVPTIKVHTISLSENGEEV
T1 sequence (P25100 whole entry): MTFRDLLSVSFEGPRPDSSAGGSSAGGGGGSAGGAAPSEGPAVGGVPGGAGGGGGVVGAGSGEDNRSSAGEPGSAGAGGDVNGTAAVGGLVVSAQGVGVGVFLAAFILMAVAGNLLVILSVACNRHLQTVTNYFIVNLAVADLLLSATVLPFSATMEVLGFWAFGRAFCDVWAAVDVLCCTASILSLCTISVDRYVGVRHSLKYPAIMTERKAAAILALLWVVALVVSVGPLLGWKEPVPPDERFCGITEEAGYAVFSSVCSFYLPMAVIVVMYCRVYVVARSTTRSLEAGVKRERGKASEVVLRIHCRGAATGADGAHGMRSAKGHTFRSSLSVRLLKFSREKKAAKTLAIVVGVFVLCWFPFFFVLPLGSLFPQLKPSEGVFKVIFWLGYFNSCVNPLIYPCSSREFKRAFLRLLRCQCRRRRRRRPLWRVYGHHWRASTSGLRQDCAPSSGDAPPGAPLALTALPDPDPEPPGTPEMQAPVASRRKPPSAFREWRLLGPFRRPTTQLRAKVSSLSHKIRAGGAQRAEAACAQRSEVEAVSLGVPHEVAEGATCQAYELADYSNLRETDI
T1 sequence (P35368 whole entry): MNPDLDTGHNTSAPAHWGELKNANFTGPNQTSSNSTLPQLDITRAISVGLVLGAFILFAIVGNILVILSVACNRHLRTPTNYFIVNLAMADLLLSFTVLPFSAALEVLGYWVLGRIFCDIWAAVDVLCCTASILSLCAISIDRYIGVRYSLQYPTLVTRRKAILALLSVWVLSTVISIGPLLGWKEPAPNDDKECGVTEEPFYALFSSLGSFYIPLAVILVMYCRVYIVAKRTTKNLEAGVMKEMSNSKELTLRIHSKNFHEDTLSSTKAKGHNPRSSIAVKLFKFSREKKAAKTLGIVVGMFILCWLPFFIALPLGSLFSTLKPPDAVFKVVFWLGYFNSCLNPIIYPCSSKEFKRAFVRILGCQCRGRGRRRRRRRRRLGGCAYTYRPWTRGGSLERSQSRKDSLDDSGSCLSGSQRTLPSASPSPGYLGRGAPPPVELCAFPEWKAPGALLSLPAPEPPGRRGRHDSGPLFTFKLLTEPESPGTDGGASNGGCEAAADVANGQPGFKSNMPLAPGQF
The series is described as follows: Binding affinity to adrenergic alpha 1 receptor (unknown origin). The series is classed as protein assay.

Series [5] can be described thus: Metabolic stability in human liver microsomes assessed as intrinsic clearance. Background: Liver microsomes are a subcellular fraction often used to study metabolism.
Series [6] can be described thus: Tmax in mouse plasma at 1.25 mg/kg, ip measured up to 480 mins by LC/ESI-MS/MS analysis. In kind it is ADME, organism-based.
The nature of series [7]: Cmax in mouse plasma at 1.25 mg/kg, ip measured up to 480 mins by LC/ESI-MS/MS analysis. The series is classed as ADME, organism-based. Also noted: time < 480 min, dose 1.25 mg/kg, route ip.
Series [8] can be described thus: AUC(0 to t) in mouse plasma at 1.25 mg/kg, ip measured up to 480 mins by LC/ESI-MS/MS analysis. Particulars: in vivo, 8 h. Also noted: dose 1.25 mg/kg, time < 480 min, route ip. The series is classed as ADME, organism-based.
Series [9] is described as follows: Apparent volume of distribution in mouse plasma at 1.25 mg/kg, ip measured up to 480 mins by LC/ESI-MS/MS analysis. In kind it is ADME, organism-based.
Series [10] in a line: Tmax in mouse hippocampus at 1.25 mg/kg, ip by LC/ESI-MS/MS analysis. In kind it is ADME, organism-based.
The nature of series [11]: Cmax in mouse hippocampus at 1.25 mg/kg, ip by LC/ESI-MS/MS analysis. In kind it is ADME, organism-based. Also noted: dose 1.25 mg/kg, route ip.
Series [12] can be described thus: AUC(0 to t) in mouse hippocampus at 1.25 mg/kg, ip by LC/ESI-MS/MS analysis. In kind it is ADME, organism-based. Also noted: dose 1.25 mg/kg, route ip.
Series [13] is described as follows: AUC(0 to t) in mouse striatum at 1.25 mg/kg, ip by LC/ESI-MS/MS analysis. The series is classed as ADME, organism-based. Also noted: dose 1.25 mg/kg, route ip.
Series [14] in a line: Tmax in mouse striatum at 1.25 mg/kg, ip by LC/ESI-MS/MS analysis. The series is classed as ADME, organism-based.
Series [15] in a line: Cmax in mouse striatum at 1.25 mg/kg, ip by LC/ESI-MS/MS analysis. Also noted: dose 1.25 mg/kg, route ip. The series is classed as ADME, organism-based.
A short description of series [16]: Tmax in mouse frontal cortex at 1.25 mg/kg, ip by LC/ESI-MS/MS analysis. In kind it is ADME, organism-based.
A short description of series [17]: Cmax in mouse frontal cortex at 1.25 mg/kg, ip by LC/ESI-MS/MS analysis. The series is classed as ADME, organism-based. Also noted: dose 1.25 mg/kg, route ip.
Series [18] can be described thus: AUC(0 to t) in mouse frontal cortex at 1.25 mg/kg, ip by LC/ESI-MS/MS analysis. In kind it is ADME, organism-based. Also noted: dose 1.25 mg/kg, route ip.

Results on 1 compound are retold here after ChEMBL document CHEMBL5143617 (Eur J Med Chem, 2022).

SMILES strings stand for the structures. Some results are limits rather than exact numbers.

Usually IC50 stands for the concentration that inhibits the measured activity by half. Higher therefore signals a need for much substance. The term Ki denotes a dissociation constant, usually derived from enzyme kinetics or from competition with a known ligand. A low value points to higher affinity. By pKi is commonly meant the negative decadic logarithm of the Ki, by convention in mol/L. Low values mean a large Ki, high ones a small Ki. A word on the microsomal CLint: it is the rate of metabolic loss divided by the concentration. One may read the Tmax as the time at which the peak concentration occurs. The term Cmax denotes the peak of the concentration-time curve. As a reminder, the Vd/F is the apparent distribution volume after extravascular dosing. As a reminder, the AUC(0-t) is the area under the concentration-time curve up to a stated or last time point. The low end stands for less exposure, the high end for more exposure.

Chain of 5-hydroxytryptamine receptor 7 (P34969 whole entry): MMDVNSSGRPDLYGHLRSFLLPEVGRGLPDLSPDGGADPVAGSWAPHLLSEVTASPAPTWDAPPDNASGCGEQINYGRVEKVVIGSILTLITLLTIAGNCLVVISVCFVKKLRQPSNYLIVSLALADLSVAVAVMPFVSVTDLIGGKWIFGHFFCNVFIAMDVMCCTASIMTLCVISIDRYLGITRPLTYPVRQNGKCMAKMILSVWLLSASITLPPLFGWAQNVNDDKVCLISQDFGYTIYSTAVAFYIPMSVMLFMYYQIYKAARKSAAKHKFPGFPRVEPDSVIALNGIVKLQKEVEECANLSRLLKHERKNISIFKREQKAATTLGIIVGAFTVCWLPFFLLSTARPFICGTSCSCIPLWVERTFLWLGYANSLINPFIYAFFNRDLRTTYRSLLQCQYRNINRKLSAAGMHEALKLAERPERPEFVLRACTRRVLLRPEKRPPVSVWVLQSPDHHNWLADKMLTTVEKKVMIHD
Chain of 5-hydroxytryptamine receptor 2A (P28223 whole entry): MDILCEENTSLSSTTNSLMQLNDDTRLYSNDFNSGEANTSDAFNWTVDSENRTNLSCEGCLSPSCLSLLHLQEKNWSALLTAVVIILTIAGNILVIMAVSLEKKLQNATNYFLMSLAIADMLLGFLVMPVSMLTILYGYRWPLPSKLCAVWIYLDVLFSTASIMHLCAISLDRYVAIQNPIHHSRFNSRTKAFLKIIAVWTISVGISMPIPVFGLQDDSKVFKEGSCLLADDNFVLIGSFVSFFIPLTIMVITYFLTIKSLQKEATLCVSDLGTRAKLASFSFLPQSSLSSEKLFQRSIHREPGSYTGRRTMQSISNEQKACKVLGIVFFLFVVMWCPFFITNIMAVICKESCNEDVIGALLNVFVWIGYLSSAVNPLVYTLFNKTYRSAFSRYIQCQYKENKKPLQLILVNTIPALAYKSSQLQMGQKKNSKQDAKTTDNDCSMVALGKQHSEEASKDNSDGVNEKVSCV
Chain of D(2) dopamine receptor (P14416 whole entry): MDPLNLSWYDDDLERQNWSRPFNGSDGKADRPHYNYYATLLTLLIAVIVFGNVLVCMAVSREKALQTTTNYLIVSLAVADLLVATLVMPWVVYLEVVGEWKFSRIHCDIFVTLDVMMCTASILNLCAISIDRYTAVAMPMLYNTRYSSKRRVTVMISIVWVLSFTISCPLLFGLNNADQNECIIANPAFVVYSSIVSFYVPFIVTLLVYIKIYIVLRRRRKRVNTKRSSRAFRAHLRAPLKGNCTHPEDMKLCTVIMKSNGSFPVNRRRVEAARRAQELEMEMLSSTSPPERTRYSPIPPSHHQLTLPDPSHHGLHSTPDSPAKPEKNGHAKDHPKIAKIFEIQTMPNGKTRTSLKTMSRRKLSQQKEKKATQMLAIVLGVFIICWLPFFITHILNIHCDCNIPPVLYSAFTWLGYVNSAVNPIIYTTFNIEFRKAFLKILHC
Chain of cAMP and cAMP-inhibited cGMP 3',5'-cyclic phosphodiesterase 10A (Q9Y233 whole entry): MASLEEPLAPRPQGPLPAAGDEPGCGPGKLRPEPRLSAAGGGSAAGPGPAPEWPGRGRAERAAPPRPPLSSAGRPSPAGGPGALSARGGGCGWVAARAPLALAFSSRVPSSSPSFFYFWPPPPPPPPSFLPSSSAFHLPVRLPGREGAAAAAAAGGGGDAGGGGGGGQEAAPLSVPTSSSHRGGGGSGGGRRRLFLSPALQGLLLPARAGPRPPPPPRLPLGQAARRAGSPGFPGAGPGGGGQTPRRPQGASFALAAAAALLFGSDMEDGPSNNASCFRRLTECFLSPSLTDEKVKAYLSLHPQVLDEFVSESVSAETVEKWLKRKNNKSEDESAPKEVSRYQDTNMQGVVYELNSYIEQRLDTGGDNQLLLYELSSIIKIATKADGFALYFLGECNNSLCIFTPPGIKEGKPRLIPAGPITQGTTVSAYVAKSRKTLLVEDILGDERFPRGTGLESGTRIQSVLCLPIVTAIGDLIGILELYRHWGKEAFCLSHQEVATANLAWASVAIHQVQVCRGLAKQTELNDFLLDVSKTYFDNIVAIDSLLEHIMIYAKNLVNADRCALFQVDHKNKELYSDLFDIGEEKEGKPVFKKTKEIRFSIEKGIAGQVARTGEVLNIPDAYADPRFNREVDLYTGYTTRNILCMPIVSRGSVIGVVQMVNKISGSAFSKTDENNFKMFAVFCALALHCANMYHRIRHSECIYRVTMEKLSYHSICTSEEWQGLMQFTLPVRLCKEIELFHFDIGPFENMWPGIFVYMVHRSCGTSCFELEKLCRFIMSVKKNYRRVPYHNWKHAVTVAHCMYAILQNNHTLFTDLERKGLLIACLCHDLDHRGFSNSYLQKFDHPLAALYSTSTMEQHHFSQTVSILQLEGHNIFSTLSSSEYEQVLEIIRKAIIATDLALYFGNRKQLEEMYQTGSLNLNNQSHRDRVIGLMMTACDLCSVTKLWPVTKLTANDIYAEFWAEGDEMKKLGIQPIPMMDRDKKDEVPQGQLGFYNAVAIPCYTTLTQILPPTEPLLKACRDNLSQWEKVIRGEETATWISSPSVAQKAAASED

For `COc1cccc(N2CCN(CC3CCN(c4ncnc5cc(OC)c(OC)cc45)C3)CC2)c1` (centres undefined), the IC50 in series [1] was 7.08 µM. The results for the Ki (in [2]; in series [3]; on D(2) dopamine receptor) were 0.234 µM, over 1 µM and over 1 µM, respectively. This compound also showed a pKi in series [4] of 6.58. For the same compound, the microsomal CLint in series [5] amounted to 292 µL/min/mg. Also, the time of peak concentration (Tmax) is 5 min in series [6], 30 min in series [10], 30 min in series [14] and 15 min in [16]. Moreover, the Cmax in [7] was 13.3 ng/mL; in series [11], 436 ng/mL; in series [15], 303 ng/mL; in series [17], 210 ng/mL. The compound also returned an AUCt in series [8] of 1164 ng·min/mL. Besides, in series [9], the Vd/F was 0.253 L/kg. The figures for the AUC(0-t) in series [12], in series [13] and in [18] were 906 ng·h/mL, 438 ng·h/mL and 726 ng·h/mL, respectively.
